Experiments:
Format in all cases: cell-based, human
[1] = system: YAPC; test: cell cycle analysis (PI staining); conditions: IC90, 24 and 48 h (Figure 19c)
Protocol: (§1) The potent cytotoxicity and the potential to inhibit the proliferation of cancer cells accompanied by DNA damage effects raised the question as to whether cell cycle progression might be affected as a result of treatment with pentathiepins.
(§2) Cells were harvested by trypsinization, collected in 1.5 mL tubes, and washed twice with PBS by centrifuging for 5 min at 500× g and discarding the supernatant after every step. For fixation, 500 µL of ice-cold ethanol (70%) was added dropwise under vortexing with a subsequent incubation on ice for 30 min. Then, the cells were centrifuged for 10 min at 4000 rpm and 4 °C, the supernatant was removed, and the cells were resuspended in 500 µL of PBS containing 25 µg/mL of PI and 100 µg/mL of RNase. The staining solution was incubated for 30 min, and the cell suspension was measured at λEx/Em = 488/655–730 nm using a MACSquant Analyzer 10 (Miltenyi Biotec, Teterow, Germany).

[2] = system: PATU-8902; test: DCFDA flow cytometric ROS assay, acute; conditions: 25 µM, 15 min
Protocol: (§3) According to the hypothesized mechanism of action (see Figure 3), pentathiepins can create oxidative stress via generation of reactive sulfur precursors. We have previously reported that a representative pentathiepin can increase the intracellular levels of ROS in two cancer cell lines. This effect was thus further evaluated with the new compounds in seven cell lines (Figure 8). The cells were incubated for 15 min with 25.0 µM pentathiepin and subsequently analyzed by using the intracellular ROS sensor 2′,7′-dichlorodihydrofluorescein diacetate (DCFDA) by flow cytometry.
(§4) In order to quantify intracellular ROS, we performed a flow cytometric assay based on the ROS-sensor 2′,7′-dichlorofluorescein diacetate (DCFDA). For acute effects of pentathiepins on intracellular ROS levels, the cells were stained with DCFDA first and subsequently incubated with 25 µM of compound for 10 min. […] Per condition, 250,000 cells were seeded in 2 mL of medium per well of a 6-well plate and allowed to adhere overnight. For measurement of acute ROS, the cells were stained with 1 mL of a 20 µM DCFDA-PBS solution for 30 min under standard incubation conditions. Afterwards, the solution was discarded, and the monolayer washed twice with 1 mL of PBS before 3 mL of medium containing 25 µM of pentathiepin was added for 10 min at 37 °C. After removing the solution and washing again with PBS, the cells were detached by using 0.5 mL of a diluted trypsin/EDTA-PBS solution (25%) and harvested with 1 mL of culture medium by carefully rinsing the wells. The cell suspension was transferred to 1.5 mL tubes, centrifuged for 5 min at 500× g, and washed with 1 mL of PBS. After removing the supernatant, each pellet was resuspended in 0.5 mL of PBS for measurement via the MACSquant Analyzer 10 at λEx/Em = 488/530 nm. Relative ROS levels resulting from treatment with pentathiepin were calculated by relating the fluorescence intensity of treated samples to the negative control. For the experiments covering periods of 24 and 48 h, the cells were incubated with the compounds first and stained with DCFDA afterwards. To assess the influence of additional GSH, we included 3 or 30 µM GSH to the medium containing 25 µM of pentathiepin, and the protocol was followed as described.

[3] = system: DanG; test: DCFDA flow cytometric ROS assay, acute; conditions: 25 µM, 15 min
Protocol: as §3, §4

[4] = system: PATU-8902; test: cell cycle analysis (PI staining); conditions: IC90, 24 and 48 h (Figure 19b)
Protocol: as §1, §2

[5] = system: PARP1 in Siso; test: Western blot of cleaved PARP1; conditions: IC90, 24 h
Protocol: (§5) In addition to general flow cytometric and microscopic analyses, Western blotting was performed to detect the apoptosis-relevant protein PARP1 (poly(ADP-ribose) polymerase 1) and its cleavage fragment (Figure 17 and Figures S29–S34). Full-length PARP1 (116 kDa) is involved in DNA repair, and a cleavage by caspases (fragment sizes 24 and 89 kDa) caused by caspase-3 and -7 is a hallmark of late apoptosis.
(§6) All detected specific bands were normalized to the total protein load per lane by the TGX stain-free gel system from Bio-Rad.
(§7) All Western blot analyses were performed with reagents, material, and devices purchased from Bio-Rad (Feldkirchen, Germany) if not stated otherwise. To obtain protein lysates, we seeded cells and treated them as described for the other methods. […] Cells were harvested by trypsinization and centrifugation for 5 min at 500× g. After a washing step with PBS, the cell pellet was resuspended in lysis buffer (Tris 50 mM (pH 7.4), 100 mM NaCl, 100 mM NaF, 5 mM EDTA, 0.2 mM Na3VO4, 0.1% Triton-X, and 1% protease inhibitor cocktail added immediately before use). Lysis was supported by incubating the samples for 10 min in an ultrasonic bath before centrifuging for 10 min at 18,000 × g and 4 °C. Protein quantification was performed via the Bradford method using ROTI®nanoquant reagent (Carl Roth GmbH, Karlsruhe, Germany) and bovine serum albumin as calibration standard. For electrophoretic separation, 15–40 µg of protein was loaded per well of a polyacrylamide gel (Mini- or Midi-Protean® TGX stain-free gel, Bio-Rad, Feldkirchen, Germany), and subsequent blotting was performed with Trans-Blot®Turbo™TransferPack Mini or Midi PVDF membranes from Bio-Rad (Feldkirchen, Germany). The membranes were blocked with a 10% non-fat milk powder solution in Tris-buffered saline (TBS; 2.42 g/L Tris, 8.48 g/L NaCl in water) plus 0.5% Tween-20 (TBST) for 1 h at RT. Incubation with primary antibodies took place over night at 4 °C in a 1:1000 dilution in TBST containing BSA (1%). The secondary antibodies conjugated to horse-radish peroxidase were diluted 1:10,000 in TBST and 1% BSA, and incubated for 4 h at RT. A detection step followed, applying Clarity™Western ECL substrate with subsequent imaging via the INTAS Advanced Fluorescence Imager. Between all incubation steps, the blots were washed three times for 10 min with TBST. The bands were quantified with the ImageLab software and normalized using the total protein quantification of the TGX stain-free gel system from Bio-Rad.

[6] = system: PARP1 in A2780; test: Western blot of cleaved PARP1; conditions: IC90, 24 h
Protocol: as §5, §6, §7

Row | SMILES | increase of G0/G1-phase cells [1] | intracellular ROS levels [2] | intracellular ROS levels [3] | increase of S-phase cells [4] | fraction of 89 kDa PARP1 [5] | fraction of 89 kDa PARP1 [6]
1 | CCOc1c2c(c3cnc4[nH]c(-c5ccc(OC)cc5)cc4n13)SSSSS2 [Compound 1, 11-Ethoxy-2-(4-methoxyphenyl)-3H-[1,2,3,4,5]pentathiepino[6′,7′:3,4]pyrrolo[1,2-a]pyrrolo[2,3-e]pyrazine] | up to 18% |  |  |  |  | 
2 | CCOc1c2c(c3ccc(C(=O)N4CCCCC4)cn13)SSSSS2 [Compound 2, (6-Ethoxy-[1,2,3,4,5]pentathiepino[6,7-a]indolizin-9-yl)(piperidinyl)methanone] |  | high levels of intracellular ROS were detected | high levels of intracellular ROS were detected |  |  | 
3 | CCOc1c2c(c3ccc(C(=O)N4CCOCC4)cn13)SSSSS2 [Compound 3, (6-Ethoxy-[1,2,3,4,5]pentathiepino[6,7-a]indolizin-9-yl)(morpholino)methanone] |  | high levels of intracellular ROS were detected | high levels of intracellular ROS were detected | up to 14% | very small and only confirmed after treatment with pentathiepins 3 or 5 | very small and only confirmed after treatment with pentathiepins 3 or 5
4 | CCOc1c2c(c3ccc(C(=O)N(CC)CC)cn13)SSSSS2 [Compound 4, 6-Ethoxy-N,N’-diethyl-[1,2,3,4,5]pentathiepino[6,7-a]indolizine-9-carboxamide] |  | high levels of intracellular ROS were detected | high levels of intracellular ROS were detected | up to 14% |  | 
5 | CCOc1c2c(c3ccc(C(=O)N4CCN(C(=O)c5ccc(F)cc5)CC4)cn13)SSSSS2 [Compound 5, (6-Ethoxy-[1,2,3,4,5]pentathiepino[6,7-a]indolizin-9-yl)(4-(4-fluorobenzoyl)piperazinyl)methanone] |  | high levels of intracellular ROS were detected | high levels of intracellular ROS were detected |  | very small and only confirmed after treatment with pentathiepins 3 or 5 | very small and only confirmed after treatment with pentathiepins 3 or 5
6 | CCOc1c2c(c3ccc(C(=O)N4CCN(S(=O)(=O)c5ccc(C)cc5)CC4)cn13)SSSSS2 [Compound 6, (6-Ethoxy-[1,2,3,4,5]pentathiepino[6,7-a]indolizin-9-yl)(4-tosylpiperazinyl)methanone] | up to 18% |  |  |  |  | 
